# Test results published in EP0490818B1, “6-CYCLOHEXYL-2'-0-METHYL-ADENOSINE HYDRATE AND USES THEREOF” (Novartis AG, priority 1990, dated 1992).
# Read-outs that look alike come from different tables or passages of the source.
# Key:
# A2 receptor = target: T1, A2 receptor (Sus scrofa, UniProt K9IW67); assay: Affinity for adenosine receptors, displacement of 3H-NECA binding in striatal membranes (A2); set-up: species or system Pig
# T1 construct: Pig striatal membranes were prepared as previously described; from tissue; host or cells: pig striatum (membranes)
# T1 sequence (K9IW67 1-409): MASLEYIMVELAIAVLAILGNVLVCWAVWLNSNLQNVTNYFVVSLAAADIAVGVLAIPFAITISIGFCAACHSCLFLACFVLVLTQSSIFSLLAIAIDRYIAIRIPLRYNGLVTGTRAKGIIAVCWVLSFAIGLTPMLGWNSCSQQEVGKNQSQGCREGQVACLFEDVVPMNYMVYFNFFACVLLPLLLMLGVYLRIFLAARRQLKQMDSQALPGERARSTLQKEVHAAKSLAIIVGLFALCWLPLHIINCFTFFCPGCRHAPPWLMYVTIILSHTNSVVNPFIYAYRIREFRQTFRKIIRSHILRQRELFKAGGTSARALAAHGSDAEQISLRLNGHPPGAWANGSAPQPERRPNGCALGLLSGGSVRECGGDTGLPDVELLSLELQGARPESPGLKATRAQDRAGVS
# Method: (§1) Pig striatal membranes were prepared as previously described by H. Bruns et al. in Molecular Pharmacology 29 (1986) pages 331-344. ^3H-NECA, a non-selective adenosine receptor agonist was used to label both A1 and A2 receptors. IC50 values were derived from the displacement curves by weighted non-linear least-square curve fitting to the Langmuir equation and pKD values calculated.
# A1 receptor [1] = conditions: ratio of A2 KD to A1 KD, pig striatal membranes
# Method: as §1
# A1 receptor [2] = target: T2, A1 receptor (Sus scrofa, UniProt I3LEN5); assay: biochemical
# T2 sequence (I3LEN5 1-326): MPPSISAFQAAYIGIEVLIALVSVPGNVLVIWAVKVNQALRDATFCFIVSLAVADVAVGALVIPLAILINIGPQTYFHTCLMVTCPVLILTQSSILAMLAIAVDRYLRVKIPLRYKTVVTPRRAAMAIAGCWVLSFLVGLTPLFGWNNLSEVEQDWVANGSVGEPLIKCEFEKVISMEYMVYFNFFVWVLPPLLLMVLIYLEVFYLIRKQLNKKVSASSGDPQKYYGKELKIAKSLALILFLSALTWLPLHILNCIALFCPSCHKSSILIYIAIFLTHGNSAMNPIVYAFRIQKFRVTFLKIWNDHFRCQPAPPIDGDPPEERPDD
# Method: as §1
# [3] = Plasma free fatty acids and triglycerides in the monkey (dyslipidemias with elevated serum triglycerides); type: in vivo; conditions: Rhesus monkey
# Source text: Several studies have shown a positive correlation between serum triglyceride levels and the risk for coronary heart disease (CHD) (Grundy, in Cholesterol and Atherosclerosis: Diagnosis and Treatment, Lippincott, Philadelphia (1990)). The value of reducing elevated triglyceride levels as an approach to reducing the risk of CHD emerged from the Helsinki Heart Study where, following treatment with gemfibrozil, the greatest reduction in serious coronary events occured in Type IIB hyperlipidemic patients in whom both LDL-cholesterol and total serum triglycerides were elevated.
"Kd (A2 receptor; Pig striatal membranes, 3H-NECA label, mean ± spread, read-out: A2 (KD;nM))",Structure (SMILES),A1:A2 selectivity (A1 receptor [1]),Kd (A1 receptor [2]),Kd (A2 receptor),plasma free fatty acids [3],plasma triglycerides [3]
269 ± 70 nM,"Nc1nc(Nc2ccccc2)nc2c1ncn2[C@@H]1O[C@H](CO)[C@@H](O)[C@H]1O [CV 1808, 2-Phenylaminoadenosine, reference compound]",0.1,2460 ± 757 nM,,,
,"CCNC(=O)[C@H]1O[C@@H](n2cnc3c(N)nc(NCCc4ccc(CCC(=O)O)cc4)nc32)[C@H](O)[C@@H]1O [CGS 21680, 2-[p-(2-Carboxyethyl)phenethylamino]-5'-N-ethyl carboxamido-adenosine]",,4360 ± 1080 nM,,,
,"CO[C@@H]1[C@H](O)[C@@H](CO)O[C@H]1n1cnc2c(NC3CCCCC3)ncnc21 [Compound No. 7 1.5 H2O, 6-cyclohexyl-2'-O-methyl-adenosine 1.5 hydrate]",1090,23 ± 2 nM,24500 ± 5160 nM,substantial and long-lasting falls,substantial and long-lasting falls
